“Also recorded” adds a separate entry of the source.
Tests used:
Format in all cases: in vivo, human
subjects = assay: Visual verbal learning test (VVLT); conditions: crossover study, Part A
Experimental: Subjects are presented 30 words on a screen, one at a time, for 1 second with a 1-second interval between words over a total of 1 minute. This is repeated in 3 trials. After each trial, subjects are asked to recall as many words as they can. After the third trial, there is a delay of 2.5 hours and subjects are then tested once for delayed recall. […] Since this was a crossover study, everyone who completed Part A was dosed with the 3 agents plus placebo.

healthy subjects [1] = assay: Heart rate by triplicate ECG after Compound 03-5 with or without nadolol pre-administration
Experimental: Heart rate was measured by triplicate ECG recordings. Data are presented as means changes from time-matched measures recorded on the day before the first dose of study drug (Day −1).
Healthy volunteers were be enrolled into 2 cohorts in a study to undertake within-subject dose titration of Compound 03-5 and/or nadolol in order to explore doses/dose combinations that mitigate peripheral effects of Compound 03-5, e.g. on heart rate, while preserving possible central effects of Compound 03-5 on cerebral perfusion and pupillary light reflex.
Cohort D1 enrolled 8 healthy subjects and undertook an evaluation of the effects of treatment on ECG following repeat dosing of Compound 03-5 in the presence of escalating doses of nadolol according to following schematic.
Eight healthy subjects aged 18-50 years were enrolled into Cohort D1 and received escalating doses of Compound 03-5 (3-12 mg) administered once daily 2 hours follow pre-administration of nadolol (1-40 mg). On all dosing days, study drug(s) were administered orally after an overnight fast of at least 8 hours.
(§1) Routine measures of ECG, vital signs, safety labs, physical exams and plasma sample collections for analysis of drug pharmacokinetics (PK) were undertaken according to the Schedule of Events (Table 1).
(§2) In Cohort D2, 8 healthy volunteers aged 55-75 years were admitted on Day −1 for a 5-day confinement period at the research facility. During this confinement, subjects received escalating doses of open label Compound 03-5 (1-10 mg) once-daily from Day 1 through Day 3 2 hours after pre-administration of open-label nadolol (3 mg) one each for the 3 dosing days according to the following schematic. Subjects remained in-residency until all study procedures are completed on Day 4.

healthy subjects [2] = assay: Blood potassium, glucose and other peripheral effects of Compound 03-5 with or without nadolol
Excerpt: Data are presented as individual observations for all available subjects.
as §1

[3] = tested on: healthy volunteers aged 55-75 years; assay: CANTAB cognition battery, Cohort D2; conditions: Compound 03-5 1, 3 and 10 mg once daily, 2 h after 3 mg nadolol, change from within-day pre-dose
Experimental: CANTAB data from healthy adults 55-75 years of age (N=4) who received once-daily 3 mg nadolol and Compound 03-5 (1, 3, and 10 mg) on Day 1, Day 2 and Day 3. […] Data are presented as mean changes from the within-day pre-dose assessment.
In some embodiments, cognition may be evaluated using the Cambridge Neuropsychological Test Automated Battery (CANTAB) assessment (see, for example, Sahakian, et al., (1988). Brain. 111 (3): 695-718). Cognitive domains, such as attention, visuospatial working memory, episodic memory, speed of process and executive function can be assessed using the CANTAB Battery Test, which includes the following: • Reaction Time (RTI), • Paired Associates Learning (PAL), • Verbal Recognition Memory (VRM) Immediate Free Recall, • Rapid Visual Information Processing (RVP), • Spatial Working Memory (SWM), • Adaptive Tracking, and • VRM Delayed Free recall and Forced-Choice Recognition.
as §2

healthy subjects [4] = assay: Adaptive tracking test (visuomotor coordination and vigilance); conditions: single dose of 160 μg clenbuterol
Excerpt: Adaptive tracking measures visuomotor coordination and vigilance. In this test, the subject uses a joystick to move a small dot so that it stays within a continuously moving circle on a computer screen (Boland 1984). During the test, the speed of the circle is adjusted in response to the subject's ability to keep the dot in the circle, ensuring that the test is adapted to the individual subject. […] The improvement shown by subjects is in the same range as that seen with subjects treated with the acetylcholinesterase inhibitor donepezil, which is in clinical use for the treatment of mild to moderate AD (Groeneveld 2016).

healthy subjects [5] = assay: ASL MRI cerebral perfusion before and after a single dose in healthy subjects (Example 3)
Experimental: The data are plotted as change from baseline in cerebral blood flow in different regions of the brain.
Six healthy subjects aged 44-52 were treated with a single dose of […]. The Baseline vs. post-dose paired t-tests results: p=0.019. The color scale is shown in the middle and indicates cerebral blood flow with low values in red and high values in yellow.
In a clinical study, healthy subjects were administered doses of clenbuterol ranging from 20 to 160 μg and ASL MM was conducted prior to and after dosing with an objective to ascertain whether this neuroimaging method enables the detection of a clinically relevant CNS signal.
In a region of interest (ROI) analysis focusing on the hippocampus, which is well understood to be affected in neurodegenerative disorders, a single dose of 80 μg of clenbuterol causes a robust increase in perfusion (see FIG. 7). […] Taken together with other cohorts in which ASL MM was conducted, a clear dose response relationship is seen between dose of clenbuterol and cerebral perfusion (FIG. 8). […] Our hypothesis is that by improving cerebral perfusion, particularly in areas of the brain that are relevant for symptoms that are commonly found in neurodegenerative diseases such as PD and AD, the administration of a β-AR agonist (such as a β-agent) will have a positive effect on clinically relevant symptoms such as memory and cognition.

patients = assay: Cerebral blood flow relative to baseline after a single dose in patients (Example 1)
[6] = clenbuterol doses of 80 and 160 μg

Question: With `CC(C)(C)NCC(O)c1ccc(O)c(CO)c1` (stereo not shown) [salbutamol] as the compound, how does the “effect on the VVLT” value (subjects) read?
Answer: positive effects

Question: With `CC(C)(C)NC[C@H](O)c1cccc(C#N)n1` [Compound 03-5, (S)-6-(2-(tert-butylamino)-1-hydroxyethyl)picolinonitrile] as the compound, how does the “mean maximum increase in heart rate” value (healthy subjects [1]; 6 mg Compound 03-5 after pre-administration of 1 mg nadolol) read?
Answer: 7 beats per minute

Question: And the “hypokalemia (blood potassium levels)” value (healthy subjects [2]; Compound 03-5 monotherapy 0.3 mg-6 mg, Cohorts A1-A5)?
Answer: Dose-dependent increases in hypokalemia

Question: And the “performance in the CANTAB cognition battery” value [3]?
Answer: improvements in performance in the CANTAB cognition battery

Question: With `CC(C)NCC(O)COc1cccc2[nH]ccc12` (stereo not shown) [pindolol] as the compound, how does the “effect on the VVLT” value (subjects) read?
Answer: detrimental effect

Question: What does the source list for `CC(C)(C)NCC(O)COc1cccc2c1CC(O)C(O)C2` (stereo not shown) [nadolol]?
Answer: effect of nadolol on peripheral effects of Compound 03-5 on heart rate, glucose, potassium, tachycardia, tremor and palpitations (healthy subjects [1]; Cohort D1, pre-administered nadolol 1 mg up to 40 mg, Compound 03-5 3-12 mg): blocked the peripheral effects; effect of nadolol on Compound 03-5 increase in heart rate and other peripheral effects including hyperglycemia and hypokalemia (healthy subjects [1]; Cohort D1, pre-administration of 1 mg nadolol, Compound 03-5 orally up to 6 mg): substantially attenuated; effect of nadolol on peripheral effects of Compound 03-5 on heart rate, etc. (healthy subjects [1]; Cohort D2, pre-administered nadolol 3 mg, Compound 03-5 1-10 mg): similarly blocked the peripheral effects; effect of nadolol on Compound 03-5 hypokalemia (healthy subjects [2]; nadolol 1-40 mg, Cohorts D1 and D2): attenuation of hypokalemia; effect of nadolol on effects of Compound 03-5 on blood glucose and potassium, tachycardia, tremor and palpitations (healthy subjects [2]; pre-administration of 1 mg nadolol, 6 mg Compound 03-5): Concomitant attenuation

Question: For `CC(C)(C)NCC(O)c1cc(Cl)c(N)c(Cl)c1` (stereo not shown) [clenbuterol], which “cognition as measured by adaptive tracking and word recall” value (healthy subjects [4]; healthy subjects, preliminary data) is on record?
Answer: improves cognition

Question: What about the “performance in adaptive tracking (percent time dot kept within moving circle)” value (healthy subjects [4]) of the same compound?
Answer: improved adaptive tracking; also recorded: performance in adaptive tracking improves

Question: What about the “effect on the VVLT” value (subjects) of the same compound?
Answer: positive effects

Question: What about the “increase in hippocampal perfusion, on average” value (healthy subjects [5]; 6 healthy subjects aged 44 to 52, single dose of 80 μg clenbuterol, hippocampus ROI) of the same compound?
Answer: 25%

Question: And the “cerebral perfusion increase as measured by CBF” value (healthy subjects [5]; clenbuterol dose of 40 μg)?
Answer: minimal increase

Question: What about the “cerebral perfusion increase as measured by CBF” value (healthy subjects [5]; clenbuterol doses below 30 μg) of the same compound?
Answer: do not produce significant cerebral perfusion increases

Question: And the “global perfusion (ASL MRI)” value (healthy subjects [5]; [6])?
Answer: robust, global increase in perfusion

Question: And the “improvement in perfusion in brain areas relevant to the neuropathology of neurodegenerative disorders” value (healthy subjects [5]; [6])?
Answer: ~25%

Question: What about the “cerebral perfusion (ASL MRI)” value (healthy subjects [5]; healthy subjects, single dose of 160 μg clenbuterol) of the same compound?
Answer: robust global increase in cerebral perfusion

Question: And the “cerebral blood flow (CBF) relative to baseline” value (patients; single dose of clenbuterol 160 μg)?
Answer: robust global increase in cerebral blood flow; also recorded: positive increase in cerebral blood flow

Question: What about the “cerebral blood flow (CBF) relative to baseline” value (patients; single dose of clenbuterol 160 μg and nadolol 5 mg) of the same compound?
Answer: robust global increase in cerebral blood flow

Question: And the “cerebral blood flow (CBF) relative to baseline” value (patients; single dose of clenbuterol ranging from 30 to 160 μg, tracked over 3 days)?
Answer: robust global increase in cerebral blood flow
